Read-outs that look alike come from different tables or passages of the source.
Experiments:
A549 = test: Antiproliferative assay (resazurin, 72 h); type: cell-based, human; conditions: A549, 72 h incubation, read-out: Growth Inhibition IC50 A549
Description: (§1) Cells were seeded in 96-well plates (5×10^3 cells/well) containing 50 μL growth medium for 24 hours. After medium removal, 100 μL fresh medium containing individual analog compound at different concentrations was added to each well and incubated at 37° C. for 72 h. […] After 72 h of incubation, 20 μL of resazurin was added for 2 h before recording fluorescence at 560 nm (excitation) and 590 nm (emission) using a Victor microtiter plate fluorimeter (Perkin-Elmer, USA).

HeLa = test: Antiproliferative assay (resazurin, 72 h); type: cell-based, human; conditions: 72 h incubation, read-out: Growth Inhibition IC50 HeLa
Description: as §1

MDA-MB-231 = test: Antiproliferative assay (resazurin, 72 h); type: cell-based, human; conditions: MDA-MB-231, 72 h incubation, read-out: Growth Inhibition IC50 MDA-MB-231
Description: as §1

bovine brain tubulin = test: Tubulin polymerization assay; conditions: compared to vehicle (DMSO)
Description: It is based on the principal that light is scattered by microtubules to an extent that is proportional to the concentration of the microtubule polymer. Compounds that interact with tubulin will alter the polymerization of tubulin, and this can be detected using a spectrophotometer. The absorbance at 340 nm at 37° C. is monitored. The experimental procedure of the assay was performed as described in version 8.2 of the tubulin polymerization assay kit manual. Varying concentrations of compounds were preincubated with 10 μM bovine brain tubulin in glutamate buffer at 30° C. and then cooled to 0° C. After the addition of 0.4 mM GTP, the mixtures were transferred to 0° C. cuvettes in a recording spectrophotometer and warmed to 30° C. Tubulin assembly was followed turbidimetrically at 350 nm.
The reaction was initiated by the addition of tubulin to a final concentration of 3.0 mg/mL

Row | Compound | IC50 (A549; Homo sapiens, A549, 72 h) | IC50 (HeLa; Homo sapiens, 72 h) | IC50 (MDA-MB-231; Homo sapiens, MDA-MB-231, 72 h) | melting point | further results
1 | COc1cc(-c2cccc(Br)n2)cc(OC)c1OC [Compound 2a, 2-Bromo-6-(3,4,5-trimethoxyphenyl)pyridine] | 9 µM | 12 µM | 6 µM | 100 to 102 °C | –
2 | COc1ccc(-c2cccc(Br)n2)cc1OC [Compound 2b, 2-Bromo-6-(3,4-dimethoxyphenyl)pyridine] | > 25 µM | > 50 µM | > 25 µM | – | –
3 | COc1ccc(-c2cccc(Br)n2)c(OC)c1 [Compound 2c, 2-Bromo-6-(2,4-dimethoxyphenyl)pyridine] | > 50 µM | > 50 µM | > 100 µM | – | –
4 | COc1ccc(-c2cccc(Br)n2)cc1 [Compound 2d, 2-Bromo-6-(4-methoxyphenyl)pyridine] | 2 µM | 2 µM | 10 µM | 99 to 100 °C | –
5 | COc1cc(-c2ccc(Br)cn2)cc(OC)c1OC [Compound 2e, 5-Bromo-2-(3,4,5-trimethoxyphenyl)pyridine] | > 25 µM | 14 µM | 12 µM | 49 to 50 °C | –
6 | COc1ccc(-c2ccc(Br)cn2)c(OC)c1 [Compound 2f, 5-Bromo-2-(2,4-dimethoxyphenyl)pyridine] | > 100 µM | > 25 µM | > 100 µM | – | –
7 | COc1cc(-c2cccc(-c3cc(OC)c(OC)c(OC)c3)n2)cc(OC)c1OC [Compound 3a, 2,6-Bis(3,4,5-trimethoxyphenyl)pyridine] | > 50 µM | 1 µM | 11 µM | – | –
8 | COc1ccc(-c2cccc(-c3ccc(OC)c(OC)c3)n2)cc1OC [Compound 3b, 2,6-Bis(3,4-dimethoxyphenyl)pyridine] | > 50 µM | > 25 µM | > 50 µM | 140 to 141 °C | –
9 | COc1ccc(-c2cccc(-c3ccc(OC)cc3OC)n2)c(OC)c1 [Compound 3c, 2,6-Bis(2,4-dimethoxyphenyl)pyridine] | 0.079 µM | 0.011 µM | 0.075 µM | 113 to 114 °C | –
10 | COc1ccc(-c2cccc(-c3ccc(OC)cc3)n2)cc1 [Compound 3d, 2,6-Bis(4-methoxyphenyl)pyridine] | > 100 µM | 2 µM | 9 µM | 156 to 158 °C | –
11 | COc1cc(-c2ccc(-c3cc(OC)c(OC)c(OC)c3)nc2)cc(OC)c1OC [Compound 3e, 2,5-Bis(3,4,5-trimethoxyphenyl)pyridine] | > 100 µM | 2.68 µM | 11 µM | – | –
12 | COc1cc(-c2ccnc(-c3cc(OC)c(OC)c(OC)c3)c2)cc(OC)c1OC [Compound 3f, 2,4-Bis(3,4,5-trimethoxyphenyl)pyridine] | – | – | – | – | IC50 (A549; Homo sapiens): 7.86 µM; IC50 (HeLa; Homo sapiens): 0.79 µM; IC50 (MDA-MB-231; Homo sapiens): 2.63 µM
13 | COc1ccc(-c2ccc(-c3ccc(OC)cc3OC)nc2)c(OC)c1 [Compound 3g, 2,5-Bis(2,4-dimethoxyphenyl)pyridine] | > 100 µM | > 50 µM | > 100 µM | 124 to 125 °C | –
14 | COc1ccc(-c2ccnc(-c3ccc(OC)cc3OC)c2)c(OC)c1 [Compound 3h, 2,4-Bis(2,4-dimethoxyphenyl)pyridine] | > 50 µM | > 25 µM | > 50 µM | 95 to 97 °C | –
15 | COc1ccc(-c2cccc(-c3ccc(OC)c(O)c3)n2)c(OC)c1 [Compound 5, 2-(2,4-Dimethoxyphenyl)-6-(3-hydroxy-4-methoxyphenyl) pyridin-1-ium chloride] | – | – | – | – | IC50 (A549): 0.042 µM; IC50 (HeLa): 0.0026 µM; IC50 (MDA-MB-231): 0.0054 µM

Further lines, with some results ahead:

Row | IC50 (A549; Homo sapiens, A549, 72 h) | IC50 (HeLa; Homo sapiens, 72 h) | IC50 (MDA-MB-231; Homo sapiens, MDA-MB-231, 72 h) | melting point | Compound | further results
16 | > 25 µM | 8 µM | 10 µM | 92 to 94 °C (dec.) | COc1cc(-c2cccc(-c3ccc(O)cc3)n2)cc(OC)c1OC [Compound 4a, 4-(6-(3,4,5-Trimethoxyphenyl)pyridin-2-yl)phenol] | –
17 | > 100 µM | 0.86 µM | > 50 µM | 70 to 72 °C (dec.) | COc1ccc(-c2cccc(-c3ccc(O)cc3)n2)cc1OC [Compound 4b, 4-(6-(3,4-Dimethoxyphenyl)pyridin-2-yl)phenol] | –
18 | > 50 µM | 0.026 µM | 2.49 µM | 107 to 108 °C | COc1ccc(-c2cccc(-c3cc(OC)c(OC)c(OC)c3)n2)cc1OC [Compound 4c, 2-(3,4-Dimethoxyphenyl)-6-(3,4,5-trimethoxyphenyl)pyridine] | –
19 | > 25 µM | > 25 µM | > 25 µM | – | COc1ccc(-c2cccc(-c3ccc(OC)c(OC)c3)n2)cc1 [Compound 4d, 2-(3,4-Dimethoxyphenyl)-6-(4-methoxyphenyl)pyridine] | –
20 | > 25 µM | > 50 µM | 13 µM | 100 to 101 °C | COc1ccc(-c2cccc(-c3ccc(OC)c(OC)c3)n2)c(OC)c1 [Compound 4e, 2-(2,4-Dimethoxyphenyl)-6-(3,4-dimethoxyphenyl)pyridine] | –
21 | > 50 µM | > 50 µM | > 25 µM | 112 to 114 °C | COc1ccc(-c2cccc(-c3cc(OC)c(OC)c(OC)c3)n2)cc1 [Compound 4f, 2-(4-Methoxyphenyl)-6-(3,4,5-trimethoxyphenyl)pyridine] | –
22 | 0.69 µM | 4.43 µM | > 100 µM | 115 to 117 °C | COc1ccc(-c2cccc(-c3cc(OC)c(OC)c(OC)c3)n2)c(OC)c1 [Compound 4g, 2-(2,4-Dimethoxyphenyl)-6-(3,4,5-trimethoxyphenyl)pyridine] | –
23 | > 50 µM | > 25 µM | > 50 µM | 131 to 132 °C | COc1ccc(-c2ccc(-c3cc(OC)c(OC)c(OC)c3)nc2)cc1OC [Compound 4i, 5-(3,4-Dimethoxyphenyl)-2-(3,4,5-trimethoxyphenyl)pyridine] | –
24 | > 25 µM | > 50 µM | > 25 µM | 133 to 134 °C | COc1ccc(-c2cccc(-c3ccc(O)cc3)n2)cc1 [Compound 4j, 4-(6-(4-Methoxyphenyl)pyridine-2-yl)phenol] | –
25 | 4.22 µM | > 100 µM | 17.2 µM | 112 to 114 °C (dec.) | COc1ccc(-c2cccc(-c3ccc(O)cc3)n2)c(OC)c1 [Compound 4k, 4-(6-(2,4-Dimethoxyphenyl)pyridine-2-yl)phenol] | –
26 | > 25 µM | > 50 µM | > 25 µM | – | COc1cc(OC)cc(-c2cccc(-c3ccc(OC)cc3OC)n2)c1 [Compound 4l, 2-(2,4-Dimethoxyphenyl)-6-(3,5-dimethoxyphenyl)pyridine] | –
27 | 0.33 µM | 0.034 µM | 0.034 µM | – | COc1ccc(-c2cccc(-c3cc(OC)ccc3OC)n2)c(OC)c1 [Compound 4m, 2-(2,4-Dimethoxyphenyl)-6-(2,5-dimethoxyphenyl)pyridine] | –
28 | > 51 µM | > 52 µM | > 50 µM | 79 to 80 °C | COc1ccc(-c2cccc(-c3cccc(OC)c3OC)n2)c(OC)c1 [Compound 4n, 2-(2,3-Dimethoxyphenyl)-6-(2,4-dimethoxyphenyl)pyridine] | –
29 | > 100 µM | > 50 µM | > 100 µM | 155 to 156 °C | COc1ccc(-c2cccc(-c3c(OC)cccc3OC)n2)c(OC)c1 [Compound 4o, 2-(2,4-Dimethoxyphenyl)-6-(2,6-dimethoxyphenyl)pyridine] | –
30 | 0.56 µM | 0.067 µM | 9.02 µM | – | COc1cccc(-c2cccc(-c3ccc(OC)cc3OC)n2)c1 [Compound 4p, 2-(2,4-Dimethoxyphenyl)-6-(3-methoxyphenyl)pyridine] | –
31 | > 50 µM | > 25 µM | > 50 µM | 144 to 145 °C | COc1ccc(-c2cccc(-c3c(OC)cc(OC)cc3OC)n2)c(OC)c1 [Compound 4q, 2-(2,4-Dimethoxyphenyl)-6-(2,4,6-trimethoxyphenyl)pyridine] | –
32 | > 50 µM | > 25 µM | > 25 µM | – | COc1ccc(-c2cccc(-c3ccccc3OC)n2)c(OC)c1 [Compound 4r, 2-(2,4-Dimethoxyphenyl)-6-(2-methoxyphenyl)pyridine] | –
33 | 2.64 µM | 0.0047 µM | 0.069 µM | 129 to 130 °C | COc1ccc(-c2cccc(-c3cc(OC)c(OC)c(OC)c3)n2)cc1O [Compound 4t, 2-Methoxy-5-(6-(3,4,5-trimethoxyphenyl)pyridine-2-yl)phenol] | Inhibition of tubulin polymerization (bovine brain tubulin; compound at 1 μM): failed to inhibit tubulin polymerization; Inhibition of tubulin polymerization (bovine brain tubulin; compound at 10 μM): 32%

— patent publication US10017475B2, “Anti-vasculature and anti-tubulin combretastatin analogs for treatment of cancer” (XAVIER UNIVERSITY OF LOUISIANA, priority 2014, dated 2018)
